Marks after values point to notes of the source that are not given here.
Tests used:
[1] = test system: alloxan induced diabetic rats; test: Alloxan induced diabetic rats: hydroxychloroquine with glimepiride; format: in vivo, Wistar rats; conditions: nine days, HCQ 160 or GLM 8 mg/kg/day p.o.
Experimental: (§1) Thirty Wistar rats weighing 150-200 g of either sex were divided into six groups consisting of five rats each. Experimental diabetes was induced in rats by injecting alloxan monohydrate intraperitonially at a dose of 90 mg/kg body weight. Rats with blood sugar level of 250-350 mg/dl, were considered as diabetic and employed in the study. Group 1 (normal control) consisted of normal rats that neither received alloxan monohydrate nor any drug. Group 2′ served as diabetic control which received vehicle orally. […] The study drugs were administered for nine days.

[2] = test system: alloxan induced diabetic rats; test: Alloxan induced diabetic rats: hydroxychloroquine with metformin; format: in vivo, Wistar rats; conditions: nine days, HCQ 160 or MET 500 mg/kg/day p.o.
Experimental: as §1, with “2” for “2′”

[3] = test system: alloxan induced diabetic rats; test: Alloxan induced diabetic rats: hydroxychloroquine with pioglitazone; format: in vivo, Wistar rats; conditions: nine days, HCQ 160 or PIO 10 mg/kg/day p.o.
Experimental: as §1, with “2” for “2′”

[4] = test system: sulphonylurea-refractory patients with poorly controlled Type 2 diabetes; conditions: cited from earlier work
[5] = test system: adults with rheumatoid arthritis; conditions: cited from earlier work
[6] = cited from earlier work
[7] = cited from earlier work; remark: listed apart in the source
[8] = patients treated with hydroxychloroquine

## CCC1=C(C)CN(C(=O)NCCc2ccc(S(=O)(=O)NC(=O)N[C@H]3CC[C@H](C)CC3)cc2)C1=O [GLM, glimepiride]
[1]
  Blood Glucose (mg/dl) Final: 157.2 ± 17.64 mg/dL
  Body Weight (g) Final: 170 ± 11.22 g
  Alb. (Albumin): 3.99 ± 0.24^a g/dl
  Blood Glucose (% mean change): (−46.83)^d %
  Body Weight (% mean change): (−3.40)^c %
  HDL (High Density Lipoprotein): 33 ± 1.58^b mg/dl
  Hb (Hemoglobin): 14.04 ± 1.90^b g/dl
  Protein (T) (Total Protein): 5.78 ± 1.22^b g/dl
  TC (Total Cholesterol): 169.40 ± 7.05^b mg/dl
  TG (Triglyceride): 113.40 ± 3.64^b mg/dl
  Urea: 30.26 ± 0.86^b mg/dl

## CCN(CCO)CCCC(C)Nc1ccnc2cc(Cl)ccc12 (centres unmarked) [HCQ, hydroxychloroquine]
[1]
  Blood Glucose (mg/dl) Final: 263.80 ± 2.04 mg/dL
  Body Weight (g) Final: 151.60 ± 13.16 g
  Alb. (Albumin): 4.03 ± 0.13^a g/dl
  Blood Glucose (% mean change): (−10.81)^c %
  Body Weight (% mean change): (−10.51)^b %
  HDL (High Density Lipoprotein): 35.80 ± 2.28^b mg/dl
  Hb (Hemoglobin): 12.12 ± 1.27^a g/dl
  TC (Total Cholesterol): 178.40 ± 2.70^c mg/dl
  TG (Triglyceride): 117.20 ± 2.28^b mg/dl
  Urea: 29.70 ± 1.37^b mg/dl
[1]; listed as hydroxychloroquine
  Blood Glucose (% mean change): −10.81%
[2]
  Blood Glucose (mg/dl) Final: 263.80 ± 2.04 mg/dL
  Body Weight (g) Final: 151.60 ± 13.16 g
  Alb. (Albumin): 4.03 ± 0.13^a g/dl
  Blood Glucose (% mean change): (−10.81)^c %
  Body Weight (% mean change): (−10.51)^b %
  HDL (High Density Lipoprotein): 35.80 ± 2.28^b mg/dl
  Hb (Hemoglobin): 12.12 ± 1.27^a g/dl
  TC (Total Cholesterol): 178.40 ± 2.70^c mg/dl
  TG (Triglyceride): 117.20 ± 2.28^b mg/dl
  Urea: 29.70 ± 1.37^b mg/dl
[2]; listed as hydroxychloroquine
  Blood Glucose (% mean change): −10.81%
[3]
  Blood Glucose (mg/dl) Final: 263.80 ± 2.04 mg/dL
  Body Weight (g) Final: 151.60 ± 13.16 g
  Alb. (Albumin): 4.03 ± 0.13^a g/dl
  Blood Glucose (% mean change): (−10.81)^c %
  Body Weight (% mean change): (−10.51)^b %
  HDL (High Density Lipoprotein): 35.80 ± 2.28^b mg/dl
  Hb (Hemoglobin): 12.12 ± 1.27^a g/dl
  TC (Total Cholesterol): 178.40 ± 2.70^c mg/dl
  TG (Triglyceride): 117.20 ± 2.28^b mg/dl
  Urea: 29.70 ± 1.37^b mg/dl
[3]; listed as hydroxychloroquine
  Blood Glucose (% mean change): −10.81%
[4]
  glycemic control: improved glycemic control
[5]
  risk of diabetes: reduced risk of diabetes
[6]; irrespective of concomitant steroid administration
  serum levels of cholesterol, triglycerides, and LDL: high statistical association with low serum levels
[6]; [8]
  HDL and % HDL: rise
  decrease in serum levels of cholesterol: approximately 10%
[7]; humans, without prolonging the bleeding time
  red blood cell aggregation: reduction
[7]; postoperative patients
  plasma viscosity as well as whole blood viscosity: significant reduction

## CN(C)C(=N)N=C(N)N [MET, metformin]
[2]
  Blood Glucose (mg/dl) Final: 148.8 ± 17.35 mg/dL
  Body Weight (g) Final: 173.8 ± 7.19 g
  Alb. (Albumin): 4.52 ± 1.12^a g/dl
  Blood Glucose (% mean change): (−47.58)^d %
  Body Weight (% mean change): (−10.51) c %
  HDL (High Density Lipoprotein): 34.40 ± 2.51^b mg/dl
  Hb (Hemoglobin): 12.80 ± 1.25^b g/dl
  Protein (T) (Total Protein): 6.75 ± 0.80^b g/dl
  TC (Total Cholesterol): 170.40 ± 5.90^b mg/dl
  TG (Triglyceride): 111.20 ± 5.93^b mg/dl
  Urea: 31.49 ± 1.81^b mg/dl
[2]; listed as Metformin
  Blood Glucose (% mean change): 47.58%

## CCc1ccc(CCOc2ccc(CC3SC(=O)NC3=O)cc2)nc1 (centres unmarked) [PIO, pioglitazone]
[3]
  Blood Glucose (mg/dl) Final: 175.8 ± 5.48 mg/dL
  Body Weight (g) Final: 159.20 ± 11.21 g
  Alb. (Albumin): 4.03 ± 0.14^a g/dl
  Blood Glucose (% mean change): (−41.92)^a %
  Body Weight (% mean change): (−6.07)^a %
  HDL (High Density Lipoprotein): 35.8 ± 2.28^b mg/dl
  Hb (Hemoglobin): 12.12 ± 1.27^b g/dl
  Protein (T) (Total Protein): 6.06 ± 1.43^b g/dl
  TC (Total Cholesterol): 178.4 ± 2.70^b mg/dl
  TG (Triglyceride): 117.2 ± 2.28^b mg/dl
  Urea: 29.69 ± 1.37^b mg/dl
